EC50 data for twelve molecules are collected here from US5773569A (Affymax Technologies N.V., priority 1995, dated 1998).

Assay [1] deals with T1, murine receptor (FDC-P1/ER cells) (Mus musculus, UniProt P14753).
T1 sequence (P14753 25-507): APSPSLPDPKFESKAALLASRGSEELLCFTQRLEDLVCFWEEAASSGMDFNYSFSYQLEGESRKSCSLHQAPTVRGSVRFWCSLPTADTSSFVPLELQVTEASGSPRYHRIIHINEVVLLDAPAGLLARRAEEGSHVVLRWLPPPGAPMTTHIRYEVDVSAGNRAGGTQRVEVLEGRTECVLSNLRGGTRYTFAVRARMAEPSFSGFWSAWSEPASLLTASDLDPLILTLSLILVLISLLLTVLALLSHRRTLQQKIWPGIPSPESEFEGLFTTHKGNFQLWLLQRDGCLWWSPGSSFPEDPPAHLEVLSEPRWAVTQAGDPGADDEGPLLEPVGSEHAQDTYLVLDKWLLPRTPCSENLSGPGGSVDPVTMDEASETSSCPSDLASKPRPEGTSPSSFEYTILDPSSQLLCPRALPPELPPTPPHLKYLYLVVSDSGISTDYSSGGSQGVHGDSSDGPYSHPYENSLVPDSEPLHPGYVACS
The assay can be described thus: cell-based. The settings on record: IA = inactive.
Experimental: Sample Preparation: Peptides were resuspended in DMSO as a 1×10^-2 M stock solution and serially diluted in 10-fold increments to generate the following 100×solutions:
Two μl of each stock dilution was added to a cell well as described below in a total volume of 200 μl to generate final concentrations as follows:
(§1) Cells are harvested and resuspended in fresh medium without growth factor (erytiropoietin) for 24 hr. Cells are counted and resuspended at a concentration of 800,000 cells/ml. Approximately forty thousand cells (50μ) are added to each well of a 96 well microtiter plate. Peptide is added to each well in triplicate. A standard dose response determination is run with each series of peptides. After a forty-two hr incubation (≈2 doubling), each well is pulsed with 1 μCi/well Thymidine. Cells are incubated an additional six hr at which time cells are harvested and counted to assess thymidine incorporation as an indicator of cell proliferation.

In assay [2] the target is T2, truncated human erythropoietin receptor cell line (Homo sapiens, UniProt P19235).
T2 sequence (P19235 25-468 limits assumed): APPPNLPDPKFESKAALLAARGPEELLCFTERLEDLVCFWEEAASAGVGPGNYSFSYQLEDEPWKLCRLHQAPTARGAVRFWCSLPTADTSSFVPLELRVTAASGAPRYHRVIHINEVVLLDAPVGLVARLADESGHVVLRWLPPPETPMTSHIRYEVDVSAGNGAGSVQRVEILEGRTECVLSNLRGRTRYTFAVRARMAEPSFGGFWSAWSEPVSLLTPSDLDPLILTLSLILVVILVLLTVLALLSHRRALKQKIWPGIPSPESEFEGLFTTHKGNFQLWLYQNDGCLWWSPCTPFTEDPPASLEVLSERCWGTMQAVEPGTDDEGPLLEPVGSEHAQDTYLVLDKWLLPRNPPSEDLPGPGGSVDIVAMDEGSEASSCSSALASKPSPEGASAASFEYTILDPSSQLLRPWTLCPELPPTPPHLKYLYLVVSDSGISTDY
The assay is described as follows: cell-based.
Experimental: as §1

Where [3] appears, read: EPO-ED50 (μM), Tables 17-19, amount for half maximal level of EPO dependent proliferation.
[4] abbreviates: EPO-ED50 (μM)* murine receptor, Tables 20-21.

As a reminder, the EC50 is the midpoint of the concentration-response curve. A high value points to lower potency in that assay.

SMILES strings stand for the structures. Residues, ends and D or L forms follow the SMILES beside them.

For the molecule `CC(C)[C@@H]1NC(=O)[C@H](Cc2c[nH]c3ccccc23)NC(=O)[C@H]([C@@H](C)O)NC(=O)[C@H](C)NC(=O)[C@@H]2CCCN2C(=O)CNC(=O)[C@H](Cc2ccccc2)NC(=O)[C@H](Cc2c[nH]cn2)NC(=O)[C@@H](NC(=O)[C@H](CO)NC(=O)[C@H](Cc2ccc(O)cc2)NC(=O)[C@@H](NC(=O)CNC(=O)CN)[C@@H](C)O)CSSC[C@@H](C(=O)N[C@@H](CCCCN)C(=O)N2CCC[C@H]2C(=O)N[C@@H](CCC(N)=O)C(=O)NCC(=O)NCC(N)=O)NC1=O` [RWJ 61314] (HELM PEPTIDE1{G.G.T.Y.S.C.H.F.G.P.A.T.W.V.C.K.P.Q.G.G.[am]}$PEPTIDE1,PEPTIDE1,6:R3-15:R3$$$V2.0), the response in assay [1] (setting [3]) was half-maximal at 0.2 µM (EC50).
As to `CC[C@H](C)[C@H](NC(=O)[C@H](Cc1ccc(O)cc1)NC(=O)[C@H](CCC(N)=O)NC(=O)[C@H](C)NC(=O)[C@@H](NC(=O)[C@@H](N)[C@@H](C)O)[C@@H](C)CC)C(=O)N[C@H]1CSSC[C@@H](C(=O)N[C@@H](CCCNC(=N)N)C(=O)N2CCC[C@H]2C(=O)N[C@@H](CO)C(=O)N2CCC[C@H]2C(=O)N[C@@H](CCCCN)C(=O)N[C@@H](C)C(N)=O)NC(=O)[C@H](CCC(=O)O)NC(=O)[C@H](Cc2c[nH]c3ccccc23)NC(=O)[C@H]([C@@H](C)O)NC(=O)[C@H](CCC(=O)O)NC(=O)[C@@H]2CCCN2C(=O)CNC(=O)[C@H](CCSC)NC(=O)[C@H](Cc2ccc(O)cc2)NC1=O` [AF11654] (HELM PEPTIDE1{T.I.A.Q.Y.I.C.Y.M.G.P.E.T.W.E.C.R.P.S.P.K.A.[am]}$PEPTIDE1,PEPTIDE1,7:R3-16:R3$$$V2.0), the EC50 in assay [1] (setting [4]) amounted to 0.2 µM; in assay [2], 20 nM.
Take `CC(C)C[C@@H]1NC(=O)[C@@H]2CCCN2C(=O)CNC(=O)[C@H](Cc2ccccc2)NC(=O)[C@H](Cc2c[nH]cn2)NC(=O)[C@@H](NC(=O)[C@H](CO)NC(=O)[C@H](Cc2ccc(F)cc2)NC(=O)[C@@H](NC(=O)CNC(=O)CN)[C@@H](C)O)CSSC[C@@H](C(=O)N[C@@H](CCCCN)C(=O)N2CCC[C@H]2C(=O)N[C@@H](CCC(N)=O)C(=O)NCC(=O)NCC(N)=O)NC(=O)[C@H](C(C)C)NC(=O)[C@H](Cc2c[nH]c3ccccc23)NC(=O)[C@H]([C@@H](C)O)NC1=O` [RWJ 62020, GGTXSCHFGPLTWVCKPQGG] (HELM PEPTIDE1{G.G.T.[O=C([C@H](Cc1ccc(F)cc1)N[*:1])[*:2]].S.C.H.F.G.P.L.T.W.V.C.K.P.Q.G.G.[am]}$PEPTIDE1,PEPTIDE1,6:R3-15:R3$$$V2.0): the EC50 in assay [1] (setting [4]) was found to be 1 µM; in assay [2], 100 nM.
Take `CC(C)C[C@@H]1NC(=O)[C@H](C)NC(=O)CNC(=O)[C@H](Cc2ccccc2)NC(=O)[C@H](Cc2c[nH]cn2)NC(=O)[C@@H](NC(=O)[C@H](CO)NC(=O)[C@H](Cc2ccc(O)cc2)NC(=O)[C@@H](NC(=O)CNC(=O)CN)[C@@H](C)O)CSSC[C@@H](C(=O)N[C@@H](CCCCN)C(=O)N2CCC[C@H]2C(=O)N[C@@H](CCC(N)=O)C(=O)NCC(=O)NCC(N)=O)NC(=O)[C@H](C(C)C)NC(=O)[C@H](Cc2c[nH]c3ccccc23)NC(=O)[C@H]([C@@H](C)O)NC1=O` [RWJ 61277] (HELM PEPTIDE1{G.G.T.Y.S.C.H.F.G.A.L.T.W.V.C.K.P.Q.G.G.[am]}$PEPTIDE1,PEPTIDE1,6:R3-15:R3$$$V2.0): in assay [1] (setting [3]), a half-maximal response (EC50) required 0.1 µM.
With `CC(C)C[C@@H]1NC(=O)[C@@H]2CCCN2C(=O)CNC(=O)[C@H](Cc2ccccc2)NC(=O)[C@H](Cc2c[nH]cn2)NC(=O)[C@@H](NC(=O)[C@H](CO)NC(=O)[C@@H](N)Cc2ccc(O)cc2)CSSC[C@@H](C(=O)N[C@@H](CCCCN)C(=O)N2CCC[C@H]2C(N)=O)NC(=O)[C@H](C(C)C)NC(=O)[C@H](Cc2c[nH]c3ccccc23)NC(=O)[C@H]([C@@H](C)O)NC1=O` [RWJ 61232] (HELM PEPTIDE1{Y.S.C.H.F.G.P.L.T.W.V.C.K.P.[am]}$PEPTIDE1,PEPTIDE1,3:R3-12:R3$$$V2.0), the EC50 in assay [1] (setting [3]) was 20 µM.
On the same count and under the same terms, to `CSCC[C@@H]1NC(=O)[C@H](CCCNC(=N)N)NC(=O)[C@@H](NC(=O)[C@H](CC(C)C)NC(=O)[C@H](Cc2ccc(O)cc2)NC(=O)[C@H](CCC(=O)O)NC(=O)CNC(=O)CN)CSSC[C@@H](C(=O)N[C@H](C(=O)N2CCC[C@H]2C(=O)N[C@H](C(=O)NCC(=O)NCC(N)=O)C(C)C)[C@@H](C)O)NC(=O)[C@H](C(C)C)NC(=O)[C@H](Cc2c[nH]c3ccccc23)NC(=O)[C@H]([C@@H](C)O)NC(=O)[C@H](CCSC)NC(=O)[C@@H]2CCCN2C(=O)CNC1=O` [RWJ 61719] (HELM PEPTIDE1{G.G.E.Y.L.C.R.M.G.P.M.T.W.V.C.T.P.V.G.G.[am]}$PEPTIDE1,PEPTIDE1,6:R3-15:R3$$$V2.0) belongs 9 µM; to `CC(C)C[C@@H]1NC(=O)[C@@H]2CCCN2C(=O)CNC(=O)[C@H](Cc2ccccc2)NC(=O)[C@H](Cc2c[nH]cn2)NC(=O)[C@@H](NC(=O)[C@H](CO)NC(=O)[C@@H](N)Cc2ccc(O)cc2)CSSC[C@@H](C(=O)N[C@@H](CCCCN)C(N)=O)NC(=O)[C@H](C(C)C)NC(=O)[C@H](Cc2c[nH]c3ccccc23)NC(=O)[C@H]([C@@H](C)O)NC1=O` [RWJ 61279] (HELM PEPTIDE1{Y.S.C.H.F.G.P.L.T.W.V.C.K.[am]}$PEPTIDE1,PEPTIDE1,3:R3-12:R3$$$V2.0), 3 µM.
Turning to `CC(C)C[C@@H]1NC(=O)[C@@H]2CCCN2C(=O)CNC(=O)[C@H](Cc2ccccc2)NC(=O)[C@H](Cc2c[nH]cn2)NC(=O)[C@@H](NC(=O)[C@H](CO)NC(=O)[C@H](Cc2ccc(O)cc2)NC(=O)[C@H](CCCCN)NC(=O)[C@H](CCCNC(=N)N)NC(=O)CNC(=O)[C@@H](N)CC(C)C)CSSC[C@@H](C(=O)N[C@@H](CCC(N)=O)C(=O)N2CCC[C@H]2C(=O)N[C@@H](C)C(=O)N[C@@H](CCCCN)C(=O)N[C@@H](CCCCN)C(=O)N[C@@H](CC(=O)O)C(N)=O)NC(=O)[C@H](C(C)C)NC(=O)[C@H](Cc2c[nH]c3ccccc23)NC(=O)[C@H]([C@@H](C)O)NC1=O` [RWJ 61757] (HELM PEPTIDE1{L.G.R.K.Y.S.C.H.F.G.P.L.T.W.V.C.Q.P.A.K.K.D.[am]}$PEPTIDE1,PEPTIDE1,7:R3-16:R3$$$V2.0), the values for the EC50 in assay [1] (setting [4]) and in assay [2] were 0.11 µM and 150 nM, respectively.
As to `CSCC[C@@H]1NC(=O)[C@H](Cc2c[nH]cn2)NC(=O)[C@@H](NC(=O)[C@H](C)NC(=O)[C@H](Cc2ccc(O)cc2)NC(=O)[C@H](CC(C)C)NC(=O)CNC(=O)CN)CSSC[C@@H](C(=O)N[C@@H](CCC(N)=O)C(=O)N2CCC[C@H]2C(=O)N[C@@H](CC(C)C)C(=O)N[C@@H](CCCNC(=N)N)C(=O)NCC(N)=O)NC(=O)[C@H](C(C)C)NC(=O)[C@H](Cc2c[nH]c3ccccc23)NC(=O)[C@H]([C@@H](C)O)NC(=O)[C@H](CCSC)NC(=O)[C@@H]2CCCN2C(=O)CNC1=O` [RWJ 61718], the EC50 came to 0.15 µM in assay [1] (setting [4]), 0.1 µM in assay [1] (setting [3]) and 80 nM in assay [2].
Turning to `CC(C)C[C@@H]1NC(=O)[C@@H]2CCCN2C(=O)CNC(=O)[C@H](Cc2ccccc2)NC(=O)[C@H](Cc2c[nH]cn2)NC(=O)[C@@H](NC(=O)[C@H](CO)NC(=O)[C@H](Cc2ccc(O)cc2)NC(=O)[C@@H](N)[C@@H](C)O)CSSC[C@@H](C(=O)N[C@@H](CCCCN)C(=O)N2CCC[C@H]2C(=O)N[C@@H](CCC(N)=O)C(=O)NCC(=O)NCC(N)=O)NC(=O)[C@H](C(C)C)NC(=O)[C@H](Cc2c[nH]c3ccccc23)NC(=O)[C@H]([C@@H](C)O)NC1=O` [RWJ 61597] (HELM PEPTIDE1{T.Y.S.C.H.F.G.P.L.T.W.V.C.K.P.Q.G.G.[am]}$PEPTIDE1,PEPTIDE1,4:R3-13:R3$$$V2.0), it took 2 µM to reach a half-maximal effect in assay [1] (setting [3]) (EC50). This lies in the single-digit micromolar range.
On the same count and under the same terms, to `CC(C)C[C@@H]1NC(=O)[C@@H]2CCCN2C(=O)CNC(=O)[C@H](Cc2ccccc2)NC(=O)[C@H](Cc2c[nH]cn2)NC(=O)[C@@H](NC(=O)[C@@H](N)Cc2ccc(O)cc2)CSSC[C@@H](C(N)=O)NC(=O)[C@H](C(C)C)NC(=O)[C@H](Cc2c[nH]c3ccccc23)NC(=O)[C@H]([C@@H](C)O)NC1=O` [RWJ 61513] (HELM PEPTIDE1{Y.C.H.F.G.P.L.T.W.V.C.[am]}$PEPTIDE1,PEPTIDE1,2:R3-11:R3$$$V2.0) belongs 2 µM; to `CC(C)C[C@@H]1NC(=O)[C@@H]2CCCN2C(=O)CNC(=O)[C@H](Cc2ccccc2)NC(=O)[C@H](Cc2c[nH]cn2)NC(=O)[C@@H](NC(=O)[C@H](CO)NC(=O)[C@H](Cc2ccc(O)cc2)NC(=O)[C@@H](N)[C@@H](C)O)CSSC[C@@H](C(=O)N[C@@H](CCCCN)C(=O)N2CCC[C@H]2C(=O)N[C@@H](CCC(N)=O)C(N)=O)NC(=O)[C@H](C(C)C)NC(=O)[C@H](Cc2c[nH]c3ccccc23)NC(=O)[C@H]([C@@H](C)O)NC1=O` [RWJ 61230] (HELM PEPTIDE1{T.Y.S.C.H.F.G.P.L.T.W.V.C.K.P.Q.[am]}$PEPTIDE1,PEPTIDE1,4:R3-13:R3$$$V2.0), 2 µM.
